Starred links: 1 amine or outer side, 2 acyl side, 3 side chain; linkers in the order of their positions; H or OH if unused. Positions of bridges follow the written chain, without caps; N, C: chain ends. Non-standard residues stand in square brackets, D forms with d. Residues, ends and D or L forms follow the SMILES beside them. Groups on a side chain read outwards from the residue. *: point of attachment. C20 diacid = O=C(O)CCCCCCCCCCCCCCCCCCC(=O)*; γGlu = O=C(O)[C@H](CCC(=O)[*:2])N[*:1]; αMeF = C[C@](N)(Cc1ccccc1)C(=O)O; NMeD = CN[C@@H](CC(=O)O)C(=O)O; NMeN = CN[C@@H](CC(N)=O)C(=O)O; Orn = NCCC[C@H](N)C(=O)O; CH2 = C([*:1])[*:2]
What was measured:
human dendritic cells = format: cell-based
Experimental: MAPPS profiles the MHC-II presented peptides on human dendritic cells treated with tested molecules. CD14+ cells, isolated from the PBMCs of normal human donors, are cultured and differentiated into immature DCs by incubation with IL-4 and GM-CSF. On day 4, culture media is replaced with fresh media containing tested molecules. On day 5, LPS is added to transform the cells into mature DCs. On day 6, cells are lysed in RIPA buffer with protease inhibitors. Immunoprecipitation of MHC-II complexes are performed using biotinylated anti-MHC-II antibody coupled to streptavidin beads. The bound complex is eluted and filtered. The isolated MHC-II peptides are analyzed by a mass spectrometer. Peptide identifications are generated by an internal proteomics pipeline using search algorithms with no enzyme and a bovine/human database with test sequences appended to the database. A KNIME workflow is used to process the identification files from the samples. Peptides identified from the test articles are aligned against the parent sequence of the test molecule. The output is used to determine the percentage of donors displaying MHC-II peptides from regions of the test molecule. Compound II, Compound IV, Compound VI, Compound VIII, a compound representative of U.S. Pat. No. 9,023,789 (hereinafter “Compound '789”), and Pramlintide are tested in the MAPPs assay.

human CT receptors = molecular target: T1, human CT receptors (Homo sapiens, UniProt P30988); test: hCTR cAMP functional activity (HTRF); format: cell-based; conditions: ±SE; UMUC3 cells overexpressing hCTR; relative EC50
T1 construct: expressed in transfected cells
T1 sequence (P30988 25-474): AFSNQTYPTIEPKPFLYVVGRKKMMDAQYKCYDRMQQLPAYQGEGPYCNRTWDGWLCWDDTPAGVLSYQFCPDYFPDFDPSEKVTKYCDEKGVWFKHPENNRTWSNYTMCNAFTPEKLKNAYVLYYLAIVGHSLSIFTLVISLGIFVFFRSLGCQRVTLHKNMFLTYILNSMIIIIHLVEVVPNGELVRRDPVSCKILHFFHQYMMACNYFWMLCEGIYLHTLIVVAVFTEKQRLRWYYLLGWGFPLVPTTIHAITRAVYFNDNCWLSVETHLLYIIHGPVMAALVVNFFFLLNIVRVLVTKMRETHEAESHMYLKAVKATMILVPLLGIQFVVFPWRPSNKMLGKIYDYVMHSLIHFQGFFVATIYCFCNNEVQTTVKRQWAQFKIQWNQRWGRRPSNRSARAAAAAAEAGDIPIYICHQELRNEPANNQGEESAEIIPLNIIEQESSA
Experimental: The AMY1 and CT receptors are GPCRs that are functionally coupled to Gas proteins. […] In vitro activity of peptides is measured by the amount of cAMP formed in human AMY1R and CTR overexpressed cells.
Human CT receptors are stably expressed in human urinary bladder cells (UM-UC-3, or UMUC3) under control of a pcDNA expression vector. […] After 20 days under selection, the mRNA levels from different clones are measured to confirm the expression of hCTR. To determine the function of over-expressed hCTR cells, the intracellular cAMP levels in response to salmon calcitonin are measured and compared to the expression of hCTR mRNA in each clone.
hAMY1R cells are cultured in MEM 1× (Corning) supplemented with 10% FBS, 1% antibiotic/antimycotic solution, 1 mM sodium pyruvate, 1×MEM NEAA, 1× GlutaMAX-I, 200 μg/mL hygromycin B, and 0.4 μg/mL puromycin. The hCTR cells are cultured in the same medium lacking the puromycin. Cultured cells are grown to 70% confluency and then incubated overnight with fresh medium.
Peptides diluted in DMSO are added (200 nL/well) in a 1:3 dilution series using ECHO acoustic liquid handler (Beckman). Cultured cells are detached with TrypLE Express (Gibco), resuspended in assay buffer, and 10 μL containing 1200 cells/well (hCTR) or 1500 cells/well (hAMY1R) are dispensed into each well. The plates are incubated at room temperature for 1 hour.
The amount of intracellular cAMP is quantitated using HTRF technology (Homogeneous Time Resolved Fluorescence; Cisbio) as per vendor instructions. Briefly, 10 μL cAMP-d2 conjugate and 10 μL anti-cAMP-cryptate conjugate in lysis buffer are incubated with the treated cells at room temperature for 60 min. […] The raw data are converted to cAMP amount (pmol/well) using a cAMP standard curve generated for each experiment.

[1] = Pharmacokinetics in male Sprague Dawley rats; format: in vivo; conditions: single SC 30 nmol/kg, mean; for Tmax / CL/F / half-life: rat, plasma; for Tmax / AUCINF/D / Cmax/D / CL/F: n = 3; for half-life: n = 3, read-out: T l/2 (converted)
Experimental: The pharmacokinetics of Compound II (SEQ ID NO:2), Compound IV (SEQ ID NO:4), Compound VI (SEQ ID NO:6), and Compound VIII (SEQ ID NO:8) are evaluated following a single subcutaneous administration of 30 nmol/kg to male Sprague Dawley rats. Blood samples are collected at 1, 3, 6, 12, 24, 48, 72, 96 hours post SC dose. The resulting individual plasma concentrations are used to calculate pharmacokinetic parameters. Peptide plasma (K3EDTA) concentrations are determined using a qualified LC/MS method that measured the intact mass of the peptides. Each peptide and an analog as an internal standard are extracted from plasma. A high resolution Thermo Q-Exactive is used for LC/MS detection.

| SMILES | MAPPS Assay donors displayed peptides (human dendritic cells) | MAPPS Assay immunogenicity risk (human dendritic cells) | peptides displayed on MHC-II complexes (human dendritic cells) | EC50 (human CT receptors) [nM] | Tmax [1] [h] | AUCINF/D [1] [hr * kg * nmol/L/nmol] | Cmax/D [1] [kg * nmol/L/nmol] | CL/F [1] [mL/h/kg] | half-life [1] [h] |
| --- | --- | --- | --- | --- | --- | --- | --- | --- | --- |
| CC(C)C[C@H](NC(=O)[C@H](CCCN)NC(=O)CNC(=O)[C@@H](NC(=O)[C@H](C)NC(=O)[C@@H]1CSCSC[C@H](NC(=O)CC[C@H](N)C(=O)O)C(=O)N[C@@H](CC(N)=O)C(=O)N[C@@H]([C@@H](C)O)C(=O)N[C@@H](C)C(=O)N[C@@H]([C@@H](C)O)C(=O)N1)[C@@H](C)O)C(=O)N[C@@H](C)C(=O)N[C@@H](CCC(=O)O)C(=O)N[C@@](C)(Cc1ccccc1)C(=O)N[C@@H](CC(C)C)C(=O)N[C@H](C(=O)N[C@@H](CCCNC(=N)N)C(=O)N[C@@H](CO)C(=O)N[C@@H](CO)C(=O)N[C@@H](CC(N)=O)C(=O)N(C)[C@@H](CC(N)=O)C(=O)N[C@@H](Cc1ccccc1)C(=O)NCC(=O)N1CCC[C@H]1C(=O)N[C@@H](CCCCNC(=O)CC[C@H](NC(=O)CC[C@H](NC(=O)CCCCCCCCCCCCCCCCCCC(=O)O)C(=O)O)C(=O)O)C(=O)N[C@@H](CC(C)C)C(=O)N1CCC[C@H]1C(=O)N1CCC[C@H]1C(=O)N[C@H](C(=O)N[C@@H](CCC(=O)O)C(=O)N[C@H](C(=O)NCC(=O)N[C@@H](CO)C(=O)N[C@@H](CC(N)=O)C(=O)N[C@H](C(=O)N[C@@H](Cc1ccc(O)cc1)C(N)=O)[C@@H](C)O)C(C)C)[C@@H](C)O)C(C)C [Compound II] (γGlu-CNTATCATG[Orn]LAE[αMeF]LVRSSN[NMeN]FGPK([γGlu-γGlu-C20 diacid])LPPTEVGSNTY-NH2; linker 1-6 via CH2) | no peptides | Low Risk | no peptides displayed on MHC-II complexes | 2.34 ± 0.272 | 24 | 473 ± 63.8 | 4.9 ± 0.9 | – | – |
| CC(C)C[C@H](NC(=O)[C@H](CCCN)NC(=O)CNC(=O)[C@@H](NC(=O)[C@H](C)NC(=O)[C@@H]1CSCSC[C@H](NC(=O)CC[C@H](N)C(=O)O)C(=O)N[C@@H](CC(N)=O)C(=O)N[C@@H]([C@@H](C)O)C(=O)N[C@@H](C)C(=O)N[C@@H]([C@@H](C)O)C(=O)N1)[C@@H](C)O)C(=O)N[C@@H](C)C(=O)N[C@@H](CCC(=O)O)C(=O)N[C@@](C)(Cc1ccccc1)C(=O)N[C@@H](CC(C)C)C(=O)N[C@H](C(=O)N[C@@H](CCCNC(=N)N)C(=O)N[C@@H](CO)C(=O)N[C@@H](CO)C(=O)N[C@@H](CC(N)=O)C(=O)N(C)[C@@H](CC(=O)O)C(=O)N[C@@H](Cc1ccccc1)C(=O)NCC(=O)N1CCC[C@H]1C(=O)N[C@@H](CCCCNC(=O)CC[C@H](NC(=O)CC[C@H](NC(=O)CCCCCCCCCCCCCCCCCCC(=O)O)C(=O)O)C(=O)O)C(=O)N[C@@H](CC(C)C)C(=O)N1CCC[C@H]1C(=O)N1CCC[C@H]1C(=O)N[C@H](C(=O)N[C@@H](CCC(=O)O)C(=O)N[C@H](C(=O)NCC(=O)N[C@@H](CO)C(=O)N[C@@H](CC(N)=O)C(=O)N[C@H](C(=O)N[C@@H](Cc1ccc(O)cc1)C(N)=O)[C@@H](C)O)C(C)C)[C@@H](C)O)C(C)C [Compound IV, γE-CNTATCATG-Orn-LAE-αMeF-LVRSSN-NMeD-FGPKLPPTEVGSNTY-NH2] (γGlu-CNTATCATG[Orn]LAE[αMeF]LVRSSN[NMeD]FGPK([γGlu-γGlu-C20 diacid])LPPTEVGSNTY-NH2; linker 1-6 via CH2) | no peptides | Low Risk | no peptides displayed on MHC-II complexes | 6.14 ± 0.764 | 20 ± 6.9 | 551 ± 27.1 | 5.5 ± 2.1 | 1.8 | 66.9 ± 27.6 |
| CC[C@H](C)[C@H](NC(=O)[C@@H]1CCCN1C(=O)CNC(=O)[C@H](Cc1ccccc1)NC(=O)[C@H](CC(=O)O)N(C)C(=O)[C@H](CC(N)=O)NC(=O)[C@H](CO)NC(=O)[C@H](CO)NC(=O)[C@H](CCCNC(=N)N)NC(=O)[C@@H](NC(=O)[C@H](CC(C)C)NC(=O)[C@](C)(Cc1ccccc1)NC(=O)[C@H](CCC(=O)O)NC(=O)[C@H](C)NC(=O)[C@H](CC(C)C)NC(=O)[C@H](CCCN)NC(=O)CNC(=O)[C@@H](NC(=O)[C@H](C)NC(=O)[C@@H]1CSCSC[C@H](NC(=O)[C@@H](N)CCCCNC(=O)CC[C@H](NC(=O)CC[C@H](NC(=O)CCCCCCCCCCCCCCCCCCC(=O)O)C(=O)O)C(=O)O)C(=O)N[C@@H](CCC(=O)O)C(=O)N[C@@H]([C@@H](C)O)C(=O)N[C@@H](C)C(=O)N[C@@H]([C@@H](C)O)C(=O)N1)[C@@H](C)O)C(C)C)C(=O)N[C@@H](CC(C)C)C(=O)N1CCC[C@H]1C(=O)N1CCC[C@H]1C(=O)N[C@H](C(=O)N[C@@H](CCC(=O)O)C(=O)N[C@H](C(=O)NCC(=O)N[C@@H](CO)C(=O)N[C@@H](CC(N)=O)C(=O)N[C@H](C(=O)N[C@@H](Cc1ccc(O)cc1)C(N)=O)[C@@H](C)O)C(C)C)[C@@H](C)O [Compound VI, KCETATCATG-Orn-LAE-αMeF-LVRSSN-NMeD-FGPILPPTEVGSNTY-NH2] (H-K([γGlu-γGlu-C20 diacid])CETATCATG[Orn]LAE[αMeF]LVRSSN[NMeD]FGPILPPTEVGSNTY-NH2; linker 2-7 via CH2) | no peptides | Low Risk | no peptides displayed on MHC-II complexes | 13.2 ± 2.23 | 24 | 506 ± 26.6 | 5.4 ± 0.5 | 2 | 54 ± 8.4 |

From patent publication US12551532B2, “Long-acting amylin receptor agonists and uses thereof” (Eli Lilly and Company, priority 2021, dated 2026)
